Assay results: paper PMC12390684 (Viruses, 2025)
Like-named read-outs stand apart in the source and are kept apart here.

Legend:
[1] = Cytotoxicity (CellTiter 96 AQueous); type: cell-based; details: human
HIV-1Laï = assay: microbe, parasite or virus in culture; type: cell-based; details: for EC50: 24 h infection, read-out: EC50
HIV-1 IN [2] = target: T1, HIV-1 IN (Human immunodeficiency virus type 1 group M subtype B, UniProt P04585); details: cited from earlier work
[3] = target: T2, IN-GCN2 interaction (6xHis-IN / GST-GCN2) (UniProt P04585+Q9P2K8); assay: biochemical; type: binding, HIV-1 IN; human GCN2; details: for IC50: IC50, inhibition of IN-GCN2 interaction; for IN-GCN2 interaction (%): screen, single dose 100 µM, single replicate, residual AlphaLISA signal normalized to DMSO control
[4] = target: T3, phosphorylation of IN by GCN2 (UniProt P04585+Q9P2K8); assay: In vitro phosphorylation assay: phosphorylation of IN by GCN2; type: biochemical, HIV-1 IN; human GCN2; details: GCN2 25 nM, IN 700 nM; compound 10 µM to 4.6 nM
GCN2 [5] = target: T4, GCN2 (Homo sapiens, UniProt Q9P2K8); assay: In vitro phosphorylation assay: GCN2 autophosphorylation; type: biochemical; details: GCN2 25 nM, IN 700 nM; compound 10 µM to 4.6 nM
T4 sequence (Q9P2K8 192-1024): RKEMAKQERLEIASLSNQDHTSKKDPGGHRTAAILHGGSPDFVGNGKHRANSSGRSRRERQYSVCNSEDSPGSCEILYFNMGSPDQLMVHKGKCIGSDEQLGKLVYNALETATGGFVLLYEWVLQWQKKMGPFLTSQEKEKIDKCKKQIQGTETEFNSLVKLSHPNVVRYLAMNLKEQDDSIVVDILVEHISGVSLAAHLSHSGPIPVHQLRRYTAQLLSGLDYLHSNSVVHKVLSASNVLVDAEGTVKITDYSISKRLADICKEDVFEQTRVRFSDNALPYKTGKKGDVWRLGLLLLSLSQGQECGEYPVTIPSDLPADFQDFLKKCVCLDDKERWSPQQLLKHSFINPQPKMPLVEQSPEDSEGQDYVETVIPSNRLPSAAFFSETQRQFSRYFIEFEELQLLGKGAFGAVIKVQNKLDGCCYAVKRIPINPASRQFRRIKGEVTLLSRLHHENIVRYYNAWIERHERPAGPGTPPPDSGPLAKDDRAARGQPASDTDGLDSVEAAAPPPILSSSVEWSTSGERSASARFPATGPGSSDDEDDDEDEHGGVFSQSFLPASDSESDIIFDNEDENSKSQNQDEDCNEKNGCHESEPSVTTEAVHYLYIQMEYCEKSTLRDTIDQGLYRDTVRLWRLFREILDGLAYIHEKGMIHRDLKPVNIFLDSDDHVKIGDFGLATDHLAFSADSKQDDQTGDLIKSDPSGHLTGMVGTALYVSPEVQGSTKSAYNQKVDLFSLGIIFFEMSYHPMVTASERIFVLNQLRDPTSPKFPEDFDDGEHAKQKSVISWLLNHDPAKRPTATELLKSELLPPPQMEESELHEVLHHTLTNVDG

HIV-1 IN [6] = target: T1, HIV-1 IN; assay: Strand transfer (ST) gel-based assay; type: biochemical; details: for apparent IC50, inhibition of ST activity, in words: 400 nM IN, 20 nM substrate, 1 h 37 °C
[7] = target: T3, phosphorylation of IN by GCN2; set-up: method as in earlier work; details: previous study ref 26; cited from earlier work
GCN2 [8] = target: T4, GCN2; set-up: method as in earlier work; details: previous study ref 26; cited from earlier work
[9] = target: T2, IN-GCN2 interaction (6xHis-IN / GST-GCN2); set-up: method as in earlier work; details: single dose 100 µM, previous data ref 26; cited from earlier work
[10] = target: GST-GCN2, active truncated human GCN2 (192-1024) with an N-terminal GST tag (human) (UniProt Q9P2K8); assay: AlphaScreen or HTRF
[11] = Human immunodeficiency virus 1, MAGI, 24 h
[12] = plated compounds of the screen, dose-response 100 µM to 46 nM (Figure 1B), n = 9
[13] = P4 MAGI CCR5+ cells, 24 h, read-out: CC50
[14] = SAR study, fresh dilutions from powder, at least three independent experiments

COc1cc(OC)c2c(O)c3c(c(-c4ccc5cc6c(c(O)c5c4O)C(=O)CC(C)(O)C6)c2c1)CC(C)OC3C (stereo not drawn) [Compound 2b, Karwinskia toxin T-544]
CC50 at 24 h ([1]; 24 h, read-out: CC50): > 5 µM
EC50 (HIV-1Laï; [11]): > 5 µM
IC50 (HIV-1 IN [2]; read-out: IC50, inhibition of both 3′-P and ST): 21 µM

CC(=O)OC(C)C1C2=C(C(=O)CC1(C)O)C(=O)c1c(ccc(-c3ccc4c(c3O)C(=O)C3=C(C4=O)C(C(C)OC(C)=O)C(C)(O)CC3=O)c1O)C2=O (stereo not drawn) [NSC248605, Julimycin B2]
IC50 [3, 12]: 30 µM
IN-GCN2 interaction (%) [3]: 6.97%
CC50 at 24 h [1, 13]: > 5 µM
effect on HIV replication, in words (HIV-1Laï): anti-
EC50 (HIV-1Laï; Human immunodeficiency virus 1, MAGI): 0.167 µM
IC50 (HIV-1 IN [2]; read-out: IC50, non-selective inhibition of IN activities): 140 µM

CC1Oc2cc3c(-c4c(O)cc(O)c5c(O)c6c(cc45)OC(C)C(C)C6=O)c(O)cc(O)c3c(O)c2C(=O)C1C (stereo not drawn) [NSC345647, chaetochromin]
IC50 [3, 12]: 5.2 µM
IN-GCN2 interaction (%) [3]: 6.36%
inhibition of IN phosphorylation, in words [4]: full inhibition
effect on GCN2 autophosphorylation, in words (GCN2 [5]): inhibited GCN2 autophosphorylation
apparent IC50, inhibition of ST activity, in words (HIV-1 IN [6]): mid-nanomolar concentration range
CC50 at 24 h ([1]; 24 h, read-out: CC50): > 5 µM
effect on HIV replication, in words (HIV-1Laï): inactive
EC50 (HIV-1Laï): > 5 µM

O=C1c2c(O)ccc(O)c2C(=O)c2c(NCCNCCO)ccc(NCCNCCO)c21 [NSC279836, mitoxantrone, reference compound]
IC50 [3, 14]: 2.4 µM
CC50 at 24 h [1]: > 5 µM
apparent IC50, inhibition of IN phosphorylation [7]: low micromolar range
concentration up to which GCN2 autophosphorylation was not affected (GCN2 [8]): 300 µM

COc1cccc2c1C(=O)c1c(O)c3c(c(O)c1C2=O)C[C@@](O)(C(C)=O)C[C@@H]3O[C@H]1C[C@H](N)[C@H](O)[C@H](C)O1 [NSC82151]
IN-GCN2 interaction (%) [3]: 50.79%
inhibition of IN-GCN2 interaction [9]: around 70%

Recombinant full-length HIV-1 integrase (6xHis-IN fusion protein) (enzyme)
AlphaLISA signal (DMSO control, plate 1) [10]: 5610 Alpha counts
AlphaLISA signal (DMSO control, plate 2) [10]: 3900 Alpha counts

N#CCCNc1ccc(NCCC#N)c2c1C(=O)c1c(O)ccc(O)c1C2=O [Compound 2m]
IC50 [3, 14]: 16 µM
CC50 at 24 h [1, 13]: > 5 µM
EC50 (HIV-1Laï; [11]): > 5 µM

COc1cc2c(cc3c4c(cc5c(c42)OCO5)CCN3C)c(OC)c1OC [NSC785155]
IC50 [3, 14]: 5.6 µM
IC50 [3, 12]: 14.5 µM
IN-GCN2 interaction (%) [3]: 8.90%
inhibition of IN phosphorylation, in words [4]: partially inhibited
effect on GCN2 autophosphorylation, in words (GCN2 [5]): limited impact
inhibition of ST activity, in words (HIV-1 IN [6]; 111 µM to 51 nM): unable to fully inhibit ST even at 111 µM
CC50 at 24 h [1, 13]: > 5 µM
EC50 (HIV-1Laï; [11]): > 5 µM

O=C1c2c(O)ccc(O)c2C(=O)c2c(NCCCO)ccc(NCCCO)c21 [Compound 2l]
IC50 [3, 14]: 13 µM
CC50 at 24 h [1, 13]: > 5 µM
EC50 (HIV-1Laï; [11]): > 5 µM

O=C1c2c(O)ccc(O)c2C(=O)c2c(NCCCCCO)ccc(NCCCCCO)c21 [Compound 2k]
IC50 [3, 14]: 12.2 µM
CC50 at 24 h [1, 13]: > 5 µM
EC50 (HIV-1Laï; [11]): > 5 µM

CCC1(O)CC(OC2CC(N(C)C)C(OC3CC(O)C(OC4CCC(=O)C(C)O4)C(C)O3)C(C)O2)c2c(cc3c(c2O)C(=O)c2c(O)ccc(O)c2C3=O)C1C(=O)OC (stereo not drawn) [NSC18334, cinerubin A]
IN-GCN2 interaction (%) [3]: 5.47%
inhibition of IN phosphorylation, in words [4]: full inhibition
effect on GCN2 autophosphorylation, in words (GCN2 [5]): inhibited GCN2 autophosphorylation
apparent IC50, inhibition of ST activity, in words (HIV-1 IN [6]): low-micromolar
CC50 ([1]; 24 h, read-out: CC50): > 5 µM
EC50 (HIV-1Laï; [11]): 0.79 µM

COc1cccc2c1C(=O)c1c(O)c3c(c(O)c1C2=O)CC(O)(C(C)=O)CC3OC1CC(N)C(OC2CC(O)C(O)C(C)O2)C(C)O1 (stereo not drawn) [Compound 1h]
IC50 [3, 14]: 6.5 µM
CC50 at 24 h [1]: > 5 µM
EC50 (HIV-1Laï; [11]): 1.66 µM
SI (CC50/EC50) (HIV-1Laï; selectivity index): >3

O=C1c2ccccc2C(=O)c2c(NCCNCCO)ccc(O)c21 [Compound 2d]
IC50 [3, 14]: 1.2 µM
fold loss of potency at inhibiting ST compared to NSC279836 (HIV-1 IN [6]): around 20 fold
ST activity compared to the DMSO control (HIV-1 IN [6]; increase at lower concentrations): up to 170%
CC50 at 24 h [1, 13]: > 5 µM
viral replication, maximum, relative to DMSO control (HIV-1Laï; dose-dependent increase (pro-viral effect)): up to 290%
